Measurements reported in ChEMBL document CHEMBL1159343, “Isolation and structure of palstatin from the Amazon tree Hymeneae palustris(1)” (2003).
In brackets after ≈: the same amount, converted by molar mass. Activity calls are given as the source filed them. The calls are words filed in the database; no cut-off is given here.

Legend:
P388 = assay: Cytotoxicity against mouse P388 cells after 48 hrs by SRB assay; assay type: functional; conditions: P388, 48 h
BXPC-3 = assay: Cytotoxicity against human BxPC3 cells after 48 hrs by SRB assay; assay type: functional; conditions: BXPC-3, 48 h
MCF7 = assay: Cytotoxicity against human MCF7 cells after 48 hrs by SRB assay; assay type: functional; conditions: MCF7, 48 h
SF-268 = assay: Cytotoxicity against human SF268 cells after 48 hrs by SRB assay; assay type: functional; conditions: SF-268, 48 h
NCI-H460 = assay: Cytotoxicity against human NCI-H460 cells after 48 hrs by SRB assay; assay type: functional; conditions: NCI-H460, 48 h
KM-20L2 = assay: Cytotoxicity against human KM20L2 cells after 48 hrs by SRB assay; assay type: functional; conditions: KM-20L2, 48 h
DU-145 = assay: Cytotoxicity against human DU145 cells after 48 hrs by SRB assay; assay type: functional; conditions: DU-145, 48 h
Neisseria gonorrhoeae = assay: Antimicrobial activity against Neisseria gonorrhoeae; assay type: functional
Escherichia coli = assay: Antimicrobial activity against Escherichia coli; assay type: functional
Streptococcus pneumoniae = assay: Antimicrobial activity against Streptococcus pneumoniae; assay type: functional, organism-based
Micrococcus luteus = assay: Antimicrobial activity against Micrococcus luteus; assay type: functional, organism-based
Enterobacter cloacae = assay: Antimicrobial activity against Enterobacter cloacae; assay type: functional, organism-based
Cryptococcus neoformans = assay: Antimicrobial activity against Cryptococcus neoformans; assay type: functional, organism-based
Candida albicans = assay: Antimicrobial activity against Candida albicans; assay type: functional, organism-based
[1] = test system: Stenotrophomonas maltophilia; assay: Antimicrobial activity against Stenotrophomonas maltophilia; assay type: functional, organism-based
Staphylococcus aureus = assay: Antimicrobial activity against Staphylococcus aureus; assay type: functional, organism-based

Row | Compound | GI50 (P388) [µg/mL] | GI50 (BXPC-3) [µg/mL] | GI50 (MCF7) [µg/mL] | GI50 (SF-268) [µg/mL] | GI50 (NCI-H460) [µg/mL] | GI50 (KM-20L2) [µg/mL] | GI50 (DU-145) [µg/mL] | MIC (Neisseria gonorrhoeae) [µg/mL] | MIC (Escherichia coli) [µg/mL] | Activity (Streptococcus pneumoniae) | Activity (Micrococcus luteus) | Activity (Enterobacter cloacae) | Activity (Cryptococcus neoformans) | Activity (Candida albicans) | Activity [1] | Activity (Staphylococcus aureus)
1 | COc1cc([C@H]2Oc3cc(-c4cc(=O)c5c(O)cc(O)cc5o4)cc(OC)c3O[C@@H]2CO)ccc1O | 2.7 (≈ 5.46 µM) | 1.8 (≈ 3.64 µM) | 2.4 (≈ 4.85 µM) | 2.2 (≈ 4.45 µM) | 2 (≈ 4.04 µM) | 1.9 (≈ 3.84 µM) | 1.8 (≈ 3.64 µM) | 0.625 (≈ 1.26 µM) | 32 (≈ 64.7 µM) | inactive | inactive | inactive | inactive | inactive | inactive | inactive
2 | COc1cc(-c2cc(=O)c3c(O)cc(O)cc3o2)ccc1O [CHRYSOERIOL] | 4 (≈ 13.3 µM) | 2.6 (≈ 8.66 µM) | 3.1 (≈ 10.3 µM) | 1.7 (≈ 5.66 µM) | 2.1 (≈ 6.99 µM) | 2.5 (≈ 8.33 µM) | 1.1 (≈ 3.66 µM) | – | – | inactive | inactive | inactive | inactive | inactive | inactive | inactive
3 | COc1cc([C@H]2Oc3cc(-c4cc(=O)c5c(O)cc(O)cc5o4)ccc3O[C@@H]2CO)ccc1O [HYDNOCARPIN] | 9.5 (≈ 20.5 µM) | 1.5 (≈ 3.23 µM) | 2.7 (≈ 5.81 µM) | 2.6 (≈ 5.6 µM) | 2.3 (≈ 4.95 µM) | 2 (≈ 4.31 µM) | 1.9 (≈ 4.09 µM) | 0.5 (≈ 1.08 µM) | – | inactive | inactive | inactive | inactive | inactive | inactive | inactive
4 | O=c1cc(-c2ccc(O)c(O)c2)oc2cc(O)cc(O)c12 [LUTEOLIN] | > 10 | > 10 | 9.4 (≈ 32.8 µM) | 9 (≈ 31.4 µM) | 3.8 (≈ 13.3 µM) | > 10 | 4.4 (≈ 15.4 µM) | 16 (≈ 55.9 µM) | 64 (≈ 224 µM) | inactive | inactive | inactive | inactive | inactive | inactive | inactive
5 | COc1cc([C@H]2Oc3cc(-c4cc(=O)c5c(O)cc(O)cc5o4)cc(OC)c3O[C@@H]2CO)cc(OC)c1O [PALSTATIN] | 8.5 (≈ 16.2 µM) | 3.2 (≈ 6.1 µM) | 3.6 (≈ 6.86 µM) | > 10 | 5.9 (≈ 11.2 µM) | > 10 | > 10 | 1 (≈ 1.91 µM) | – | inactive | inactive | inactive | inactive | inactive | inactive | inactive
6 | COc1cc(-c2cc(=O)c3c(O)cc(O)cc3o2)cc(OC)c1O [TRICIN] | > 10 | 7.5 (≈ 22.7 µM) | 7.7 (≈ 23.3 µM) | 3 (≈ 9.08 µM) | 6.5 (≈ 19.7 µM) | > 10 | 4.6 (≈ 13.9 µM) | – | – | inactive | inactive | inactive | inactive | inactive | inactive | inactive
